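These data come from cells grown in 96-well plates and exposed to compound for 48 hours at five concentrations. GI50 marks 50% less growth. The concentration for full growth arrest is given as TGI.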

Among the test systems are SW-620 colon; NCI-H460 lung; KM12 colon; NCI-H522 lung; OVCAR-3 ovarian; MALME-3M melanoma; SK-MEL-2 melanoma; PC-3 prostate; MDA-MB-435; T-47D breast.
Holding throughout (experiment): NCI anticancer screen, dose series, 48 h

On to `OC1OCC(COc2cc(Cl)c(Cl)cc2Cl)OC1O` (stereo not given), for which the TGI is 47.7 µM in the assay with SW-620 colon; above 100 µM with NCI-H460 lung; above 100 µM in the assay with KM12 colon; 70.8 µM in the assay on NCI-H522 lung; 69.5 µM in the assay with OVCAR-3 ovarian; above 100 µM with MALME-3M melanoma.

With `COc1ccc(/C(=N/O)c2ccccc2C2=Nc3ccccc3C(NCc3ccccc3)O2)cc1C` (stereo not given), the TGI in the assay with SW-620 colon, in the assay with NCI-H460 lung, in the assay with KM12 colon, in the assay with NCI-H522 lung, in the assay on OVCAR-3 ovarian and in the assay on SK-MEL-2 melanoma was above 100 µM in each case. Further, the TGI with PC-3 prostate was above 100 µM; in the assay with MDA-MB-435, 90.4 µM; in the assay with MALME-3M melanoma, 52.7 µM.

Consider `C/C(=N\N=C(N)N)C(CN1CCOCC1)C(c1ccccc1)c1c(O)c2ccccc2oc1=O` (stereo not given), for which the TGI in the assay on SW-620 colon, in the assay with NCI-H460 lung, with KM12 colon, in the assay on NCI-H522 lung, in the assay on OVCAR-3 ovarian and in the assay on SK-MEL-2 melanoma was above 100 µM each time. In the assay on MALME-3M melanoma, this molecule returned a TGI above 100 µM.

As for `Cc1nc(N)c(N2CCN(S(=O)(=O)N(Cc3ccccc3)Cc3ccccc3)CC2)c(=O)[nH]1`, the TGI in the assay on SW-620 colon is above 100 µM; in the assay with NCI-H460 lung it was above 100 µM; with KM12 colon, above 100 µM; in the assay on OVCAR-3 ovarian, 73.8 µM; in the assay on T-47D breast, 59.7 µM; with SK-MEL-2 melanoma, above 100 µM. In addition, the figures for the TGI with PC-3 prostate, in the assay with MDA-MB-435 and in the assay with MALME-3M melanoma were 46.5 µM, 88.8 µM and 56.6 µM, respectively.

On to `O=C(Nc1ccc(Br)cc1)C(=O)C(C(=O)c1ccc(Cl)c(Cl)c1)C1OC(=O)c2ccccc21` (stereo not given), for which the TGI with SW-620 colon came to 38.4 µM; with NCI-H460 lung, 38.2 µM; with KM12 colon it was 31.8 µM; in the assay on NCI-H522 lung, 47.9 µM; in the assay with OVCAR-3 ovarian, 67.3 µM; in the assay with MALME-3M melanoma it was 24.1 µM.

For `Cc1cc(OCc2ccc(C(F)(F)F)cc2)c2c(c1)C(=O)C=C(NCCN1CCCC1)C2=O`, the GI50 in the assay with SW-620 colon was 1.78 µM; with NCI-H460 lung it was 1.84 µM; in the assay on KM12 colon it was 4.39 µM; with NCI-H522 lung, 2.66 µM; in the assay with OVCAR-3 ovarian it was 2.52 µM; with SK-MEL-2 melanoma, 1.99 µM. Moreover, the values for the GI50 in the assay with PC-3 prostate, in the assay with MDA-MB-435 and in the assay on MALME-3M melanoma were 5.36 µM, 1.62 µM and 2.09 µM, respectively. Also, the TGI with SW-620 colon was determined as 3.48 µM; in the assay on NCI-H460 lung, 3.43 µM; with KM12 colon, 15.4 µM; with NCI-H522 lung, 6.05 µM; with OVCAR-3 ovarian, 6.47 µM; in the assay with SK-MEL-2 melanoma, 4.08 µM. The TGI in the assay with PC-3 prostate was found to be 19.5 µM; with MDA-MB-435, 3.02 µM; with MALME-3M melanoma, 3.95 µM.

With `C=CC1=C(C)C(/C=c2\[nH]/c(=C/c3[nH]c(CC4NC(=O)C(C)/C4=C\C)c(C)c3CCC(=O)O)c(CC(=O)O)c2C)=NC1=O` (stereo not given), the TGI in the assay on SW-620 colon, in the assay on NCI-H460 lung, in the assay on KM12 colon, with NCI-H522 lung, in the assay on OVCAR-3 ovarian and in the assay on SK-MEL-2 melanoma was above 100 µM throughout. In addition, the TGI in the assay on MALME-3M melanoma was above 100 µM.

As for `NS(=O)(=O)c1ccc(-n2nc3c(c2-c2cccs2)Cc2ccccc2-3)cc1`, the GI50 with SW-620 colon is 10.2 µM; in the assay with NCI-H460 lung, above 100 µM; with KM12 colon it was 13.5 µM; in the assay on NCI-H522 lung, 12.4 µM; in the assay on OVCAR-3 ovarian, 14.4 µM; in the assay with T-47D breast, 12.8 µM. In addition, the GI50 in the assay on SK-MEL-2 melanoma is 27.6 µM; in the assay with PC-3 prostate, 6.76 µM; in the assay with MDA-MB-435, 11.8 µM. The TGI is 23.4 µM in the assay on SW-620 colon; above 100 µM with NCI-H460 lung; 32.2 µM in the assay with KM12 colon; 29.8 µM with NCI-H522 lung; 44.4 µM with OVCAR-3 ovarian; 41.1 µM in the assay with T-47D breast. The TGI is 69.6 µM with SK-MEL-2 melanoma, 20.6 µM in the assay with PC-3 prostate and 27.6 µM in the assay with MDA-MB-435.

Take `O=C(CC12C3C4C1C1C2C3C41CC(=O)NO)NO` (stereo not given): the TGI in the assay with SW-620 colon is above 100 µM; with NCI-H460 lung, 62.5 µM; with KM12 colon it was above 100 µM; in the assay with NCI-H522 lung it was 77.4 µM; in the assay on OVCAR-3 ovarian it was above 100 µM; in the assay with SK-MEL-2 melanoma it was above 100 µM. Moreover, the TGI in the assay with MALME-3M melanoma was above 100 µM.

`O=C1CCC2(O)c3ccccc3C2Cc2ccccc21` (stereo not given): the TGI in the assay with SW-620 colon, in the assay on NCI-H460 lung, in the assay on KM12 colon, in the assay with OVCAR-3 ovarian, in the assay with SK-MEL-2 melanoma and with MALME-3M melanoma was above 100 µM each time.

As for `CSc1ccc(N2C(=O)C3c4[nH]c5ccccc5c4C4CCC(C(C)(C)C)CC4C3C2=O)cc1` (stereo not given), the TGI with SW-620 colon was above 100 µM; with NCI-H460 lung, 34.4 µM; with KM12 colon, above 100 µM; with NCI-H522 lung it was 40.4 µM; in the assay with OVCAR-3 ovarian, above 100 µM; in the assay on SK-MEL-2 melanoma, 43.1 µM. Further, the TGI in the assay with MALME-3M melanoma was 42.9 µM.

In the case of `[N-]=[N+]=C(C(=O)CN1CCCC1=O)S(=O)(=O)c1ccccc1`, the TGI in the assay with SW-620 colon, in the assay with NCI-H460 lung, with KM12 colon, in the assay with NCI-H522 lung, with OVCAR-3 ovarian and in the assay on SK-MEL-2 melanoma was above 100 µM throughout. Also, the TGI in the assay on PC-3 prostate, in the assay on MDA-MB-435 and in the assay with MALME-3M melanoma was above 100 µM throughout.

For the molecule `COc1nn(C)cc1Nc1nccc(-c2c[nH]c3c(NC(=O)[C@@H](C)N4CCN(C)CC4)cccc23)n1`, the GI50 was 40.8 µM in the assay with SW-620 colon; 40.7 µM in the assay with NCI-H460 lung; 37.6 µM with KM12 colon; 43.2 µM with NCI-H522 lung; 56.1 µM with OVCAR-3 ovarian; 25 µM in the assay with SK-MEL-2 melanoma. The GI50 in the assay with PC-3 prostate was 51.2 µM; in the assay on MDA-MB-435, 24.3 µM; with MALME-3M melanoma it was 20.1 µM. The TGI in the assay on SW-620 colon was above 100 µM; in the assay on NCI-H460 lung it was above 100 µM; with KM12 colon it was above 100 µM; in the assay with NCI-H522 lung it was above 100 µM; with OVCAR-3 ovarian, above 100 µM; with SK-MEL-2 melanoma, 74.5 µM. For the same molecule, the values for the TGI with PC-3 prostate, with MDA-MB-435 and with MALME-3M melanoma were above 100 µM, 82.3 µM and 73.1 µM, respectively.

Regarding `Cc1ccc(/C=C2\CCCCC2=O)cc1`, the TGI in the assay on SW-620 colon, in the assay on NCI-H460 lung and in the assay on OVCAR-3 ovarian was above 100 µM throughout.

Source of the values: PubChem BioAssay (NCI).
